Results from PMC10144058, “New Hybrid Scaffolds Based on 5-FU/Curcumin: Synthesis, Cytotoxic, Antiproliferative and Pro-Apoptotic Effect” (Pharmaceutics, 2023).
Like-named read-outs stand apart in the source and are kept apart here.

How the values were obtained:
SW480 cells [1] = test: Cell death induction (Annexin-V/PI, flow cytometry); format: cell-based, human; conditions: SW480, treated with IC50, 48 h
Method: For this method, 250,000 cells/well were initially seeded in 6-well culture plates during a 24 h adherence period at 37 °C in a 5% CO2 atmosphere. […] After treatment, cells were obtained by mechanical disaggregation, resuspended in a solution with Annexin-V-FLUOS and PI, and incubated for 20 min in the dark before flow cytometry analysis.

[2] = test system: caspase 3, caspase 7, caspase 8 and p53 in SW480 cells; test: Apoptotic biomarkers (ELISA); format: cell-based, human; conditions: SW480, treated with IC50, 48 h, vs control
Method: (§1) To provide an approach to the possible molecular mechanisms through which the hybrid compounds induce an effect on the cell lines, different proteins related to the process of death by apoptosis were determined. For this method, 1,000,000 cells were initially seeded per Petri dish, with an adherence period of 24 h at 37 °C in a 5% CO2 atmosphere. […] Later, the consumed medium was discarded, and after the addition of the versene buffer, the cells were obtained by mechanical disaggregation. The cells were then lysed with a cell lysis buffer and centrifuged to obtain the supernatant, which was used to determine the biomarkers of interest by enzyme-linked immunosorbent assays. These ELISA kits were provided by Elabscience Biotechnology Co., Houston, TX, USA [26].

[3] = test system: caspase 3, caspase 7, caspase 8 and p53 in SW620 cells; test: Apoptotic biomarkers (ELISA); format: cell-based, human; conditions: SW620, treated with IC50, 48 h, vs control
Method: as §1

SW620 cells [4] = test: Cell cycle analysis (PI, flow cytometry); format: cell-based, human; conditions: SW620, treated with IC50 value, 48 h
Method: (§2) The method used for the recognition of cell cycle phases (G0/G1, S, G2/M) was based on staining with a fluorescent dye (propidium iodide—PI), as a direct relationship between fluorescence intensity and DNA content can be established. For this method, 250,000 cells/well were initially seeded in 6-well culture plates with an adherence period of 24 h at 37 °C in a 5% CO2 atmosphere. […] After treatment, cells were obtained by mechanical disaggregation, and the cell pellet was centrifuged and washed with a versene buffer. The cell pellet was fixed with 1.8 mL of cold 70% ethanol and kept at 4 °C overnight. Subsequently, two washes with a versene buffer were performed, and the pellet was resuspended in 300 µL of PBS containing 0.25 mg/mL of RNAsa and 0.1 mg/mL of PI. After a 30 min period of dark incubation, the fluorescence of 10,000 cells was analyzed using a FACS Canto II flow cytometer. The PI signal was analyzed with excitation at 488 nm using a sapphire laser, and fluorescence was detected at 610 nm. The data analysis was performed with FlowJo 10.8.1 software.

SW480 cells [5] = test: Cell cycle analysis (PI, flow cytometry); format: cell-based, human; conditions: SW480, treated with IC50 value, 48 h
Method: as §2

SW480 cells [6] = test: Antiproliferative activity (SRB, 0-8 days); format: cell-based; conditions: Homo sapiens, read-out: Cell Viability (%) ± SE; for viability at 0.625 µM: SW480, 0.625 µM; for viability at 10 µM: SW480, 10 µM
Method: For this experiment, the same colorimetric method (SRB) from the evaluation of cell viability was used, although with some modifications. Initially, 2500 cells per well were seeded in 96-well culture plates, and a 24 h adherence period was performed at 37 °C in a 5% CO2 atmosphere. […] For this assay, incubation periods of 0, 2, 4, 6, and 8 days were used, and the fixation, staining, and reading conditions were the same as those previously described for the cytotoxicity assay.

SW480 cells [7] = test: Cell viability, sulforhodamine B (SRB) assay; format: cell-based; conditions: Homo sapiens
Method: (§3) SW480 (colon adenocarcinoma) and SW620 (derived metastatic) malignant cell lines, and the non-malignant lines HaCaT (human keratinocytes) and CHO-K1 (Chinese Hamster Ovary), were obtained from the European Collection of Authenticated Cell Cultures (ECACC, Porton Down, Salisbury, UK). The cells were maintained in Dulbecco’s Modified Eagle’s Medium (DMEM), supplemented with 10% equine serum previously inactivated at 56 °C, 1% penicillin/streptomycin, and 1% non-essential amino acids, and incubated at 37 °C in an atmosphere with 5% CO2. To carry out the experiments, the serum was diluted to 3% and additionally supplemented with […] insulin, […] transferrin, and 5 ng/mL selenium. Cells were used for experimentation when they reached 80–90% confluence, using a 1X trypsin enzymatic disintegration method. To avoid contamination by Mycoplasma spp., cell cultures were periodically analyzed by polymerase chain reaction (PCR).
(§4) Cell viability was evaluated with a sulforhodamine B (SRB) assay. This technique provides an index of protein contents in living and adherent cells, whose optical density can be related to cell concentration. Initially, 20,000 cells were seeded per well in 96-well culture plates. An initial adherence period of 24 h was performed at 37 °C, 5% CO2, and after this, the medium was replaced by another that contained the hybrid compounds in different concentrations. Then, the cells were left incubating for 24 and 48 h under the same conditions previously described. After the respective incubation times, the cells were fixed with trichloroacetic acid (50% v/v) for 1 h at 4 °C and stained with 0.4% (p/v) of SRB. Subsequently, washings with 1% acetic acid were carried out to eliminate possible nonspecific bindings, and after solubilization with 10 mM Tris-base, the absorbance was read at 492 nm in a microplate reader (Mindray MR-96A). All the experiments were carried out in triplicate.

SW620 cells [8] = test: Mitochondrial membrane potential (DiOC6/PI, flow cytometry); format: cell-based, human; conditions: SW620, treated with IC50, 48 h
Method: (§5) The fluorescent dyes PI and DIOC6 (3,3’-dihexyloxacarbocyanine iodide) were used to observe the depolarization of the mitochondrial membrane as well as possible cell membrane damage. For this method, 250,000 cells/well were initially seeded in 6-well culture plates during a 24 h adherence period at 37 °C in a 5% CO2 atmosphere. […] After treatment, cells were obtained by mechanical disaggregation, stained with DiOC6 and PI, and incubated at room temperature for 30 min in the dark. Ten thousand events were analyzed by flow cytometry with excitation at 488 nm and emission detection with green (530/15 nm) and red (610/20 nm) filters.

SW480 cells [9] = test: as above; format: cell-based, human; conditions: SW480, treated with IC50, 48 h
Method: as §5

HaCaT cells = test: Cell viability, sulforhodamine B (SRB) assay, non-malignant cells; format: cell-based; conditions: Homo sapiens
Method: as §3, §4

Compound: COc1cc(/C=C/C(=O)c2ccc(OCCCCCn3cc(Cn4cc(F)c(=O)[nH]c4=O)nn3)cc2)ccc1O [Compound 6d, (E)-5-fluoro-1-((1-(5-(4-(3-(4-hydroxy-3-methoxyphenyl)acryloyl)phenoxy)pentyl)-1H-1,2,3-triazol-4-yl)methyl)pyrimidine-2,4(1H,3H)-dione]
- Annexin V/PI quadrant Q3 (early apoptotic cells) (SW480 cells [1]): 50.2%
- levels of biomarkers (caspase 3, caspase 7, caspase 8, p53) [2]: no significant differences
- levels of biomarkers (caspase 3, caspase 7, caspase 8, p53) [3]: no significant differences
- Cell cycle distribution, G0/G1 (SW620 cells [4]): 4.4%
- Cell cycle distribution, G2/M (SW620 cells [4]): 11.0%
- Cell cycle distribution, S Phase (SW620 cells [4]): 24.7%
- Cell cycle distribution, G0/G1 (SW480 cells [5]): 42.9%
- Cell cycle distribution, G2/M (SW480 cells [5]): 10.1%
- Cell cycle distribution, S Phase (SW480 cells [5]): 20.0%
- Cell cycle distribution, Sub G0/G1 (SW480 cells [5]): 24.1%
- viability at 0.625 µM (SW480 cells [6]; 48 h, 2 days after plating): 90.1 ± 1.45%
- viability at 10 µM (SW480 cells [6]; 48 h, 2 days after plating): 7.35 ± 1.45%
- viability at 0.625 µM (SW480 cells [6]; 96 h, 4 days after plating): 55.5 ± 2.21%
- viability at 10 µM (SW480 cells [6]; 96 h, 4 days after plating): 0.75 ± 0.2%
- viability at 0.625 µM (SW480 cells [6]; 144 h, 6 days after plating): 46.36 ± 0.18%
- viability at 10 µM (SW480 cells [6]; 144 h, 6 days after plating): 0.68 ± 0.14%
- viability at 0.625 µM (SW480 cells [6]; 192 h, 8 days after plating): 32.3 ± 0.77%
- viability at 10 µM (SW480 cells [6]; 192 h, 8 days after plating): 0%
- IC50 (SW480 cells [7]; SW480, 24 h): 15.7 ± 1.91 µM
- IC50 (SW480 cells [7]; SW480, 48 h): 2.43 ± 0.33 µM
- Dioc6 High population (live cells with high membrane polarization) (SW620 cells [8]): 19.2%
- Dioc6 Low population (cells that lose membrane polarization) (SW620 cells [8]): 0.11%
- PI+ population (membrane damage or dead cells) (SW620 cells [8]): 76.1%
- changes in the mitochondrial membrane potential (SW620 cells [8]): do not induce significant changes
- Dioc6 High population (live cells with high membrane polarization) (SW480 cells [9]): 76.2%
- Dioc6 Low population (cells that lose membrane polarization) (SW480 cells [9]): 0%
- PI+ population (membrane damage or dead cells) (SW480 cells [9]): 23.7%
- changes in the mitochondrial membrane potential (SW480 cells [9]): do not induce significant changes
- IC50 (HaCaT cells; 24 h): 42.6 ± 6.93 µM
- IC50 (HaCaT cells; 48 h): 20.3 ± 2.66 µM
